Results taken from PMC10820444, “1,2,4-Triazole-Tethered Indolinones as New Cancer-Fighting Small Molecules Targeting VEGFR-2: Synthesis, Biological Evaluations and Molecular Docking” (Pharmaceuticals, 2024).
Where two headings read alike, the source gives them in different places.

Experiments:
PANC1 cell line = experiment: MTT anti-proliferative assay, PANC1; format: cell-based, human; conditions: for IC50: MTT, 48 h exposure, mean ± S.D., 3 separate experiments
Protocol: (§1) 1. Anti-proliferative activity against HepG2 and PANC1 cancer cell lines
(§2) American Type Culture Collection (ATCC). Cells lines were maintained as monolayers in Dulbecco’s Modified Eagle’s Medium (DMEM) supplemented with 10% FBS, 2 mM L-glutamine, 100 U/ml penicillin and 100µg/ml streptomycin sulfate. Cells were sub-cultured with trypsine /EDTA solution, counted with haemocytometer and plated onto 96-well plates (5000 cells/well) and left overnight to form a semi-confluent monolayer. Cell monolayers were treated in quadrates with vehicle (DMSO, 0.1% v/v), and test samples […]
end of exposure, MTT solution in PBS (5 mg/ml) was then added to all well including no cell blank and left to incubate for 90 min. The formation of formazan crystals were visually confirmed using phase contract microscopy. DMSO (100 µl/well) was added to dissolve the formazan crystals with shaking for 10 min after which the absorbance was read at 590 nm against no cell blanks on a FLuo Star Optima microplate reader (BMG technologies, Germany). Cell proliferation was calculated comparing the OD values of the DMSO control wells and those of the samples represented as % proliferation to the control. Dose-response experiment was performed on samples producing > or =50% loss of cell […]
(§3) vehicle control) were calculated using non-linear regression curve fitting of the dose response plots on GraphPad Prism V.6.0 software.

HepG2 cell line = experiment: MTT anti-proliferative assay, HepG2; format: cell-based, human; conditions: mean ± S.D., 3 separate experiments
Protocol: as §1, §2
end of exposure, MTT solution in PBS (5 mg/ml) was then added to all well including no cell blank and left to incubate for 90 min. The formation of formazan crystals were visually confirmed using phase contract microscopy. DMSO (100 µl/well) was added to dissolve the formazan crystals with shaking for 10 min after which the absorbance was read at 590 nm against no cell blanks on a FLuo Star Optima microplate reader (BMG technologies, Germany). Cell proliferation was calculated comparing the OD values of the DMSO control wells and those of the samples represented as % proliferation to the control. Dose-response experiment was performed on samples producing > or =50% loss of cell proliferation using five serial 2-fold dilutions (50, 25, 12.5, 6.25 and 3.125 µM) of the […]
as §3

[1] = Cytotoxicity against non-tumorigenic Vero cell line; format: cell-based; conditions: African green monkey, Vero cells (non-tumorigenic), read-out: IC50 Vero (cytotoxic activity)
VEGFR-2 [2] = molecular target: T1, VEGFR-2 (Homo sapiens, UniProt P35968); design: purchased BPS Bioscience 40325; method as in PMID 35217379; conditions: cited from earlier work
T1 sequence (P35968 20-1356): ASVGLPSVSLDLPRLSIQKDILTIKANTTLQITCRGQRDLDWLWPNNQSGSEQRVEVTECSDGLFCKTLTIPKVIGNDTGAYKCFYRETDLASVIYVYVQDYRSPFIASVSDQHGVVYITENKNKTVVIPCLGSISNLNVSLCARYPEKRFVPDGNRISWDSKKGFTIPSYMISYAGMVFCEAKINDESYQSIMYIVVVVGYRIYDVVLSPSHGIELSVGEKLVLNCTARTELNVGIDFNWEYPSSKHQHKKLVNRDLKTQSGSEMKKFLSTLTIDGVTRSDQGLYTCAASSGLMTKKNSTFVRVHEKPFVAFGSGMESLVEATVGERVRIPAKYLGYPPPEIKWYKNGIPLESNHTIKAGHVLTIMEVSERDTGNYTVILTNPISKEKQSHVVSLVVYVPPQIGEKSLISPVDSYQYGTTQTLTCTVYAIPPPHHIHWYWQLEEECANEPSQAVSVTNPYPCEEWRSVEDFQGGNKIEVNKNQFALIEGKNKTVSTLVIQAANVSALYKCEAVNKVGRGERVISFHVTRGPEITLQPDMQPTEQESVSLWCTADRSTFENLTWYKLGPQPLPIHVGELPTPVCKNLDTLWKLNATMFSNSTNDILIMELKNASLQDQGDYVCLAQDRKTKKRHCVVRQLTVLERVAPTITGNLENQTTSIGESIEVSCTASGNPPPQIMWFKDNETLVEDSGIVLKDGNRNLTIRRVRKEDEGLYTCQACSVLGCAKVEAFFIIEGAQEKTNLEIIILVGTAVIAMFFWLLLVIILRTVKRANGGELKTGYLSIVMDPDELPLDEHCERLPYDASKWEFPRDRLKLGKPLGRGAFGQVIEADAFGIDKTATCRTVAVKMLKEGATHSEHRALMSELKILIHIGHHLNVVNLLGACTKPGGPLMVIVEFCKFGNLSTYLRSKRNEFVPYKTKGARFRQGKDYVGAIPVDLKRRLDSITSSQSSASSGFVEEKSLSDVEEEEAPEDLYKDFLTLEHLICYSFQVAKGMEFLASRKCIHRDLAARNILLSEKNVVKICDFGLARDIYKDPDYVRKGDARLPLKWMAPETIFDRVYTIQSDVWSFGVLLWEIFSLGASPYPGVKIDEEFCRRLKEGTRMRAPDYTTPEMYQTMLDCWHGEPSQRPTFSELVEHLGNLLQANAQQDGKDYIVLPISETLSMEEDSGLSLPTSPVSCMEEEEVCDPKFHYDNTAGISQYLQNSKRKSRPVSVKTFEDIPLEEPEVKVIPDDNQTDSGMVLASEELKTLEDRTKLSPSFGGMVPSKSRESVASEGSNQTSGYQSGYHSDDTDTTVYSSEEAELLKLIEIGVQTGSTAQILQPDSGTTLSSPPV

VEGFR-2 [3] = molecular target: T1, VEGFR-2; experiment: biochemical
Protocol: (§4) In brief, the master mixture was produced (25 μL per well) and poured into
(§5) each well. Each well received 5 μL of inhibitor solution designated as "Test Inhibitor". The "Positive Control" and "Blank" groups received 5 μL of the same solution without the
(§6) inhibitor (Inhibitor buffer). In order to prepare 3 mL of kinase buffer, 600 μL of kinase
(§7) buffer were combined with 2400 μL of water. The blank wells received 20 μL of kinase
(§8) buffer. The amount of VEGFR-2 required for the test was measured and the enzyme was
(§9) diluted to 1 ng/ μL with kinase buffer. 20 μL of diluted VEGFR-2 enzymes was added to
(§10) the wells designated as "Test Inhibitor Control” and “Positive Control” to start the reaction
(§11) and the mixtures were incubated at 30 °C for 45 minutes. After the 45 minutes, each well received 50 μL of KinaseGlo Max reagent and the plate was incubated at room temperature
(§12) for 15 minutes. The luminescence was measured with a microplate reader.

VEGFR-2 [4] = molecular target: T1, VEGFR-2; experiment: VEGFR-2 Kinase Assay Kit (BPS Bioscience)
Protocol: as §4, §5, §6, §7, §8, §9, §10, §11, §12

Vero cell line = experiment: Cytotoxicity against non-tumorigenic Vero cell line; format: cell-based; conditions: read-out: IC50 Vero (cytotoxic activity)
VEGFR-2 [5] = molecular target: T1, VEGFR-2; design: purchased BPS Bioscience 40325; method as in doi:10.1016/j.molstruc.2021.131832; conditions: cited from earlier work
HepG2 = tested on: HepG2; design: method as in doi:10.1016/j.molstruc.2021.131832; conditions: hepatocellular cell line HepG2; cited from earlier work
[6] = Homo sapiens, HepG2, 48 h exposure

IC50 (PANC1 cell line; Homo sapiens, PANC-1) [nM]	IC50 (HepG2 cell line; [6]) [nM]	SMILES	also measured
1740 ± 20	1170 ± 30	CC(=O)Nc1ccc(-c2nc(C(=O)NN=C3C(=O)Nc4ccc(F)cc43)nn2-c2ccc(F)cc2)cc1 [11b, N-[4-(3-{N′-[5-Fluoro-2-oxo-2,3-dihydro-1H-indol-3-ylidene]hydrazinecarbonyl}-1-(4-fluorophenyl)-1H-1,2,4-triazol-5-yl)phenyl]acetamide]	
200	580 ± 10	CC(=O)Nc1ccc(-c2nc(C(=O)NN=C3C(=O)N(C)c4ccccc43)nn2-c2ccc(Cl)cc2)cc1 [14c, N-{4-[1-(4-Chlorophenyl)-3-{N′-[1-methyl-2-oxo-2,3-dihydro-1H-indol-3-ylidene]hydrazinecarbonyl}-1H-1,2,4-triazol-5-yl]phenyl}acetamide]	IC50 [1]: 7920 ± 480 nM
980 ± 60	2210 ± 30	CC(=O)Nc1ccc(-c2nc(C(=O)NN=C3C(=O)Nc4ccc(Cl)cc43)nn2-c2ccc(F)cc2)cc1 [11c, N-[4-(3-{N′-[5-Chloro-2-oxo-2,3-dihydro-1H-indol-3-ylidene]hydrazinecarbonyl}-1-(4-fluorophenyl)-1H-1,2,4-triazol-5-yl)phenyl]acetamide]	
		Cc1ccc(NC(=O)CSc2nnc(Cn3c(=O)c(C)nc4ccccc43)n2C)cc1 [I]	IC50 (VEGFR-2 [2]): 60 nM
1780 ± 40	730 ± 10	COc1ccc2c(c1)C(=NNC(=O)c1nc(-c3ccc(NC(C)=O)cc3)n(-c3ccc(Cl)cc3)n1)C(=O)N2 [11k, N-{4-[1-(4-Chlorophenyl)-3-{N′-[5-methoxy-2-oxo-2,3-dihydro-1H-indol-3-ylidene]hydrazinecarbonyl}-1H-1,2,4-triazol-5-yl]phenyl}acetamide]	IC50 (VEGFR-2 [3]): 41.3 ± 0.31 nM; times increase of VEGFR-2 activity compared to 11g (VEGFR-2 [4]; versus unsubstituted indolin-2-one 11g): approximately 3 times; IC50 [1]: 13200 ± 1090 nM
2220 ± 70	760 ± 20	COc1ccc2c(c1)C(=NNC(=O)c1nc(-c3ccc(NC(C)=O)cc3)n(-c3ccc(F)cc3)n1)C(=O)N2 [11e, N-{4-[1-(4-Fluorophenyl)-3-{N′-[5-methoxy-2-oxo-2,3-dihydro-1H-indol-3-ylidene]hydrazinecarbonyl}-1H-1,2,4-triazol-5-yl]phenyl}acetamide]	IC50 (VEGFR-2 [3]): 48.4 ± 0.39 nM; IC50 [1]: 8350 ± 620 nM; IC50 (Vero cell line): 11700 ± 930 nM
		COc1cccc2c1C(=O)c1c(O)c3c(c(O)c1C2=O)C[C@@](O)(C(=O)CO)C[C@@H]3O[C@H]1C[C@H](N)[C@H](O)[C@H](C)O1 [Dox., reference compound]	IC50 (PANC1 cell line): 190 ± 10 nM; IC50 (HepG2 cell line; 48 h exposure): 430 ± 20 nM
4290 ± 100	2060 ± 30	CC(=O)Nc1ccc(-c2nc(C(=O)NN=C3C(=O)Nc4ccccc43)nn2-c2ccc(F)cc2)cc1 [11a, N-{4-[1-(4-Fluorophenyl)-3-{N′-[2-oxo-2,3-dihydro-1H-indol-3-ylidene]hydrazinecarbonyl}-1H-1,2,4-triazol-5-yl]phenyl}acetamide]	
1680 ± 60	1010 ± 20	CC(=O)Nc1ccc(-c2nc(C(=O)NN=C3C(=O)Nc4ccc(Br)cc43)nn2-c2ccc(Cl)cc2)cc1 [11j, N-[4-(3-{N′-[5-Bromo-2-oxo-2,3-dihydro-1H-indol-3-ylidene]hydrazinecarbonyl}-1-(4-chlorophenyl)-1H-1,2,4-triazol-5-yl)phenyl]acetamide]	
770 ± 20	710 ± 10	CC(=O)Nc1ccc(-c2nc(C(=O)NN=C3C(=O)Nc4ccccc43)nn2-c2ccc(Cl)cc2)cc1 [11g, N-{4-[1-(4-Chlorophenyl)-3-{N′-[2-oxo-2,3-dihydro-1H-indol-3-ylidene]hydrazinecarbonyl}-1H-1,2,4-triazol-5-yl]phenyl}acetamide]	IC50 [1]: 10600 ± 710 nM
220 ± 10	1270 ± 40	CC(=O)Nc1ccc(-c2nc(C(=O)NN=C3C(=O)Nc4ccc(F)cc43)nn2-c2ccc(Cl)cc2)cc1 [11h, N-{4-[1-(4-Chlorophenyl)-3-{N′-[5-fluoro-2-oxo-2,3-dihydro-1H-indol-3-ylidene]hydrazinecarbonyl}-1H-1,2,4-triazol-5-yl]phenyl}acetamide]	fold improvement of efficacy against PANC1 compared to 11b (PANC1 cell line; versus fluorinated-phenyl counterpart 11b): 8 fold; melting point: > 300 °C
760 ± 40	980	CC(=O)Nc1ccc(-c2nc(C(=O)NN=C3C(=O)N(Cc4ccccc4)c4ccc(Br)cc43)nn2-c2ccc(F)cc2)cc1 [14b, N-[4-(3-{N′-[1-Benzyl-5-bromo-2-oxo-2,3-dihydro-1H-indol-3-ylidene]hydrazinecarbonyl}-1-(4-fluorophenyl)-1H-1,2,4-triazol-5-yl)phenyl]acetamide]	
230 ± 10	2410 ± 40	CC(=O)Nc1ccc(-c2nc(C(=O)NN=C3C(=O)Nc4ccc([N+](=O)[O-])cc43)nn2-c2ccc(F)cc2)cc1 [11f, N-{4-[1-(4-Fluorophenyl)-3-{N′-[5-nitro-2-oxo-2,3-dihydro-1H-indol-3-ylidene]hydrazinecarbonyl}-1H-1,2,4-triazol-5-yl]phenyl}acetamide]	
170 ± 10	1730 ± 60	CC(=O)Nc1ccc(-c2nc(C(=O)NN=C3C(=O)Nc4ccc([N+](=O)[O-])cc43)nn2-c2ccc(Cl)cc2)cc1 [11l, N-{4-[1-(4-Chlorophenyl)-3-{N′-[5-nitro-2-oxo-2,3-dihydro-1H-indol-3-ylidene]hydrazinecarbonyl}-1H-1,2,4-triazol-5-yl]phenyl}acetamide]	
3750 ± 90	4490 ± 150	CC(=O)Nc1ccc(-c2nc(C(=O)NN=C3C(=O)Nc4ccc(Cl)cc43)nn2-c2ccc(Cl)cc2)cc1 [11i, N-[4-(3-{N′-[5-Chloro-2-oxo-2,3-dihydro-1H-indol-3-ylidene]hydrazinecarbonyl}-1-(4-chlorophenyl)-1H-1,2,4-triazol-5-yl)phenyl]acetamide]	
1160 ± 20	730 ± 20	CC(=O)Nc1ccc(-c2nc(C(=O)NN=C3C(=O)Nc4ccc(Br)cc43)nn2-c2ccc(F)cc2)cc1 [11d, N-[4-(3-{N′-[5-Bromo-2-oxo-2,3-dihydro-1H-indol-3-ylidene]hydrazinecarbonyl}-1-(4-fluorophenyl)-1H-1,2,4-triazol-5-yl)phenyl]acetamide]	IC50 (VEGFR-2 [3]): 16.3 ± 0.42 nM; fold enhancement of efficacy against VEGFR-2 compared to 11e (VEGFR-2 [4]; 5-Br versus 5-OCH3 (11e)): approximately 3 fold; IC50 [1]: 11700 ± 930 nM; IC50 (Vero cell line): 8350 ± 620 nM
4050 ± 100	1630 ± 20	CC(=O)Nc1ccc(-c2nc(C(=O)NN=C3C(=O)N(C)c4ccccc43)nn2-c2ccc(F)cc2)cc1 [14a, N-{4-[1-(4-Fluorophenyl)-3-{N′-[1-methyl-2-oxo-2,3-dihydro-1H-indol-3-ylidene]hydrazinecarbonyl}-1H-1,2,4-triazol-5-yl]phenyl}acetamide]	
420 ± 10	920 ± 20	CC(=O)Nc1ccc(-c2nc(C(=O)NN=C3C(=O)N(Cc4ccccc4)c4ccc(Br)cc43)nn2-c2ccc(Cl)cc2)cc1 [14d, N-[4-(3-{N′-[1-Benzyl-5-bromo-2-oxo-2,3-dihydro-1H-indol-3-ylidene]hydrazinecarbonyl}-1-(4-chlorophenyl)-1H-1,2,4-triazol-5-yl)phenyl]acetamide]	
		CCOC(=O)/C(=N\Nc1ccc(Cl)cc1)Sc1nnc(C(F)(F)F)n1/N=C/c1ccc(OC)cc1 [II]	IC50 (VEGFR-2 [5]): 74 nM; IC50 (HepG2): 10000 nM
